Reference: publication PMC10254233, “Synthesis and In Vitro Biological Evaluation of p-Carborane-Based Di-tert-butylphenol Analogs” (Molecules, 2023)

What was measured:
Type in all cases: cell-based, human
HCT116 cells [1] = test: Cell proliferation assay (CFSE staining); conditions: HCT116, IC50 dose, 72 h, compared to R-830
HCT116 cells [2] = test: Co-treatment with autophagy inhibitors, CV assay; conditions: HCT116, 50 µM with 20 µM chloroquine or 1 mM 3-MA, 72 h
Excerpt: This means that the cytotoxic activity of the tested drug is enhanced by the inhibition of autophagy.
(G) HCT116 cells were co-treated with R-830-Cb and 3-methyladenine (3-MA) or chloroquine and viability was estimated by crystal violet (CV) assay. * p < 0.05; *** p < 0.001 in comparison to relevant control.
1.1.3. Measurement of reactive oxygen and nitrogen species (ROS/RNS) generation Dihydrorhodamine 123 (DHR) staining was used for detection of production of ROS/RNS species.
(§1) Finally, after 72 h incubation, cells were washed, tryp-sinized, and analyzed using flow cytometry (CyFlow® Space Partec using the PartecFloMax® software […]
1.1.4. PI staining on chamber slides […]
(§2) (30 µM) and R-830-Cb (50 µM)). […] Finally, for covering the slides fluorescent mounting medium was used and slides were ana-lyzed with Zeiss AxioObserver Z1 inverted fluorescence microscope (Carl Zeiss AG, Oberkochen, Ger-many) at 400 x magnification.
(§3) 1.1.5. Evaluation of the role of detected autophagy
(§4) Concomitant treatment of R-830-Cb and autophagy inhibitors chloroquine and 3-MA was performed to determine the nature of detected autophagy. […] Cell viability was evaluated using CV assay after 72 h. […]
Finally, after 72 h incubation, cells were tripsynized, washed, resuspended in PBS, and analyzed by flow cytometry (CyFlow® Space Partec using the PartecFloMax® software (Munster, Germany)).

HCT116 cells [3] = test: ROS/RNS generation, DHR 123 staining; conditions: HCT116, IC50 dose, 72 h
Excerpt: Apostat staining confirmed that apoptosis was in correlation with the activation of caspases (Figure 3C). […] The […] production of reactive oxygen species explains the observed effects of the applied treatments, namely inhibition of proliferation and induction of apoptosis (Figure 3E). It is widely accepted that drug-mediated hyperproduction of reactive oxygen species that are not buffered by cellular anti-oxidative protection is responsible for cell death induction. […] The described feature is acquired during disease progression, and it is tightly connected with abnormal blood supply and a hypoxic microenvironment. Therefore, elimination of these molecules results in a rapid decrease in cell viability. […]
as §1, §2, §3, §4

Substance: 1-Hydroxy-12-(thiophen-2′-carbonyl)-1,12-dicarba-closo-dodecaborane(12) [Compound R-830-Cb]
- cell division (CFSE) (HCT116 cells [1]): more severely affected
- cell viability on co-treatment with chloroquine or 3-MA (HCT116 cells [2]): suppression of the autophagy process caused a drug-induced decrease in cell viability
- reactive oxygen species production (HCT116 cells [3]): potent inhibition of ROS
